Assay results: article PMC9312113, “Bioactive Components from Ampelopsis japonica with Antioxidant, Anti-α-Glucosidase, and Antiacetylcholinesterase Activities” (Antioxidants, 2022)
Like-named read-outs stand apart in the source and are kept apart here.

Columns and labels:
[1] = Ferric reducing antioxidant power (FRAP) assay
Description: The FRAP assay was measured using the procedure previously described.

[2] = ABTS radical scavenging assay; conditions: n = 3
Description: This assay was assessed using the procedure previously described.

[3] = DPPH radical scavenging activity; conditions: n = 3
Description: This assay was determined using the procedure previously reported.

[4] = molecular target: acetylcholinesterase (AChE) (Electrophorus electricus, UniProt O42275); experiment: biochemical
[5] = Superoxide radical scavenging assay; conditions: isolated compounds (Table 5); n = 3
Description: This assay was determined by the method previously described.

[6] = isolated compounds (Table 5), Trolox equivalents
[7] = solvent extracts (Table 2), concentration causing 50% free radical scavenging
[8] = isolated components (Table 6), read-out: IC50 AChE (converted)

Sequence of acetylcholinesterase (AChE) (O42275 24-633): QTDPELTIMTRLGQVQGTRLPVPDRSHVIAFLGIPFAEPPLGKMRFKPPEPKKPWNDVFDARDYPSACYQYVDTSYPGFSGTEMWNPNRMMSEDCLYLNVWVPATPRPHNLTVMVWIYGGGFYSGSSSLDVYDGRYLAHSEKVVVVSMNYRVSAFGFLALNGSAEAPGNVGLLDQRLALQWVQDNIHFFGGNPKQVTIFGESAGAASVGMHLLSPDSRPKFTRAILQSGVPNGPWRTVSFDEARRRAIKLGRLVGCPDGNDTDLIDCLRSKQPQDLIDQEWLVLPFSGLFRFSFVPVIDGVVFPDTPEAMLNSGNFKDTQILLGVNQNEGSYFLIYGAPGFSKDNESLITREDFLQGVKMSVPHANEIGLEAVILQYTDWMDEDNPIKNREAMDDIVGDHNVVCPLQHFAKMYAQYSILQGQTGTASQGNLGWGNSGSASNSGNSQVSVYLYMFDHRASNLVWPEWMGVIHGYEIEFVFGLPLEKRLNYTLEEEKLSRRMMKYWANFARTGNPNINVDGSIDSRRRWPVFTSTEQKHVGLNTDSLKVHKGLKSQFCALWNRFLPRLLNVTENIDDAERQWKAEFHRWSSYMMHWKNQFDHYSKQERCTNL

Cc1cc(C(C)(C)C)c(O)c(C(C)(C)C)c1 [BHT, butylated hydroxytoluene, reference compound]
FRAP, TE [1, 6]: 3997.23 ± 144.35 mM/g
FRAP, TE ([1]; solvent extracts (Table 2), millimolar of Trolox equivalents per gram of extract): 4257.97 ± 145.90 mM/g
SC50 ABTS ([2]; isolated compounds (Table 5)): 17.36 ± 3.14 µg/mL
SC50 ABTS [2, 7]: 14.09 ± 0.24 µg/mL
SC50 DPPH ([3]; isolated compounds (Table 5)): 36.99 ± 4.54 µg/mL
SC50 DPPH [3, 7]: 33.04 ± 2.12 µg/mL

O=C(/C=C/c1ccc(O)c(O)c1)O[C@@H]1C[C@](O)(C(=O)O)C[C@@H](O)[C@H]1O [Chlorogenic acid, chlorogenic acid, reference compound]
IC50 [4, 8]: 182 µM
IC50 ([4]; solvent extracts (Table 3), read-out: IC50 AChE (converted)): 188 µM

Oc1cc(O)c2c(c1)O[C@H](c1ccc(O)c(O)c1)[C@@H](O)C2 [Compound 1, catechin]
SC50 Superoxide [5]: 64.43 ± 7.73 µg/mL
FRAP, TE [1, 6]: 8729.33 ± 424.55 mM/g
SC50 ABTS ([2]; isolated compounds (Table 5)): 2.23 ± 0.22 µg/mL
IC50 [4, 8]: 90.8 µM
SC50 DPPH ([3]; isolated compounds (Table 5)): 10.08 ± 3.09 µg/mL

O=C(O)c1cc(O)c(O)c(O)c1 [Compound 2, gallic acid]
SC50 Superoxide [5]: 47.40 ± 3.01 µg/mL
FRAP, TE [1, 6]: 28,512.82 ± 43.27 mM/g
SC50 ABTS ([2]; isolated compounds (Table 5)): 1.45 ± 0.14 µg/mL
IC50 [4]: 244 µM
SC50 DPPH ([3]; isolated compounds (Table 5)): 2.60 ± 0.67 µg/mL

O=c1c(O)c(-c2ccc(O)cc2)oc2cc(O)cc(O)c12 [Compound 3, kaempferol]
FRAP, TE [1, 6]: 7912.47 ± 220.08 mM/g
SC50 ABTS ([2]; isolated compounds (Table 5)): 5.24 ± 0.45 µg/mL
SC50 DPPH ([3]; isolated compounds (Table 5)): 12.48 ± 3.01 µg/mL

O=c1c(O)c(-c2ccc(O)c(O)c2)oc2cc(O)cc(O)c12 [Compound 4, quercetin]
SC50 Superoxide [5]: 31.89 ± 2.03 µg/mL
FRAP, TE [1, 6]: 16,038.26 ± 86.89 mM/g
SC50 ABTS ([2]; isolated compounds (Table 5)): 3.15 ± 0.49 µg/mL
SC50 DPPH ([3]; isolated compounds (Table 5)): 3.36 ± 0.58 µg/mL

C[C@@H]1CC[C@]2(C(=O)O)CC[C@]3(C)C(=CC[C@@H]4[C@@]5(C)C[C@@H](O)[C@@H](O)C(C)(C)[C@@H]5CC[C@]43C)[C@@H]2[C@]1(C)O [Compound 5, euscaphic acid]
SC50 Superoxide [5]: >400 µg/mL
FRAP, TE [1, 6]: 8.67 ± 3.93 mM/g
SC50 ABTS ([2]; isolated compounds (Table 5)): >400 µg/mL
IC50 [4, 8]: 23.8 µM
SC50 DPPH ([3]; isolated compounds (Table 5)): >400 µg/mL

Oc1ccc(/C=C/c2cc(O)cc(O)c2)cc1 [Compound 6, resveratrol]
IC50 [4]: 354 µM

Oc1cc(O)c2c(c1)O[C@H](c1ccc(O)c(O)c1)[C@H](O)C2 [Compound 7, epicatechin]
SC50 Superoxide [5]: 41.76 ± 4.20 µg/mL
FRAP, TE [1, 6]: 13,122.77 ± 182.42 mM/g
SC50 ABTS ([2]; isolated compounds (Table 5)): 3.78 ± 0.03 µg/mL
IC50 [4, 8]: 184 µM
SC50 DPPH ([3]; isolated compounds (Table 5)): 2.78 ± 0.25 µg/mL
